Reference: publication PMC7529893, “Structural basis for substrate recognition and chemical inhibition of oncogenic MAGE ubiquitin ligases” (Nature Communications, 2020)

Biological target: T1, MAGE-A11:PCF11 interaction (GST-MAGE-A11 and FAM-PCF11_4) (Homo sapiens, UniProt P43364)
T1 construct: GST-MAGE-A11 MHD (human MAGE-A11 MHD amino acid 218-429); made in house; host or cells: E. coli BL21(DE3)
T1 sequence (P43364 218-429): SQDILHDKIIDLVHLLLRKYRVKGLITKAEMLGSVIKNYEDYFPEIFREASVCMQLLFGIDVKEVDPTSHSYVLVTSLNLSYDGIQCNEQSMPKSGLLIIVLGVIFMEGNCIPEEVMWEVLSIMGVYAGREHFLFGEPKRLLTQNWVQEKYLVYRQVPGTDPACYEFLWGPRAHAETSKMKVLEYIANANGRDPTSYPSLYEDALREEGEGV
Assay: TR-FRET primary / single point screen at 15 µM
Assay type: binding
Details: single point TR-FRET screening of 797 quinoline compounds against MAGE-A11:PCF11
Outline: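 Single-point screen at 15 µM final compound in 50 mM Tris pH 7.5, 20 mM MgCl2, 0.1 mg/ml BSA, 1 mM DTT, with 200 nM FAM-PCF11_4, 5 nM Tb-anti-GST and 5 nM GST-MAGE-A11. After 90 min at room temperature, the 520/490 nm TR-FRET ratio (340 nm excitation) gave %Inhibition against no-MAGE-A11 and DMSO controls.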

First: COc1cccc(CN(CCCCNc2ccnc3cc(Cl)ccc23)Cc2ccccc2)c1 [SJ000361210]
Second: FC(F)(F)Oc1cccc(CN(CCCCNc2ccnc3cc(Cl)ccc23)Cc2ccccc2)c1 [SJ000520457]
The “percent inhibition (TR-FRET)” value of the first is lower: 11.7175 for the first, 33.314 for the second.

Going from `COc1ccc2ncc(S(=O)(=O)c3ccccc3)c(N3CCN(c4ccc(F)cc4)CC3)c2c1` [SJ000083978] to `CCOc1ccc2ncc(S(=O)(=O)c3ccc(C)cc3)c(N3CCN(c4ccc(F)cc4)CC3)c2c1` [SJ000117060], the “percent inhibition (TR-FRET)” value rises from -133.117 to -11.0715.

First: Cc1ccc(S(=O)(=O)c2cnc3ccc(F)cc3c2N2CCN(c3ccccc3)CC2)cc1C [SJ000117052]
Second: COc1ccccc1N1CCN(c2c(S(=O)(=O)c3ccc(C)c(C)c3)cnc3ccccc23)CC1 [SJ000117068]
The “percent inhibition (TR-FRET)” value of the first is lower: -16.9013 for the first, -5.706 for the second.

Going from `CCCCNCCCNc1c2ccc(Cl)cc2nc2ccc(OC)cc12` [SJ000520995] to `CCCNCCCNc1c2ccc(Cl)cc2nc2ccc(OC)cc12` [SJ000361096], the “percent inhibition (TR-FRET)” value falls from -405.549 to -498.476.

Going from `CCCN(CCCNc1c2ccc(Cl)cc2nc2ccc(OC)cc12)Cc1ccc(OC)c(OC)c1` [SJ000520957] to `CCCN(CCCNc1c2ccc(Cl)cc2nc2ccc(OC)cc12)Cc1ccccc1` [SJ000520925], the “percent inhibition (TR-FRET)” value rises from -175.453 to -127.926.

Compared with `O=[N+]([O-])c1ccc(CN2CCC(Nc3ccnc4cc(Cl)ccc34)CC2)cc1` [SJ000523096], `Clc1ccc2c(NC3CCN(Cc4ccc5ccccc5c4)CC3)ccnc2c1` [SJ000523100] is higher in “percent inhibition (TR-FRET)” value: -4.954 for the first, 4.171 for the second.

Going from `COc1ccc2nc3cc(Cl)ccc3c(NCCCNCc3ccc(F)cc3)c2c1` [SJ000523035] to `COc1ccc2nc3cc(Cl)ccc3c(NCCCNCc3ccccc3)c2c1` [SJ000361086], the “percent inhibition (TR-FRET)” value falls from -398.22 to -432.435.

Compared with `CCCN(CCCNc1c2ccc(Cl)cc2nc2ccc(OC)cc12)Cc1cn(C(C)=O)c2ccccc12` [SJ000522736], `CCCN(CCCNc1c2ccc(Cl)cc2nc2ccc(OC)cc12)Cc1ccccn1` [SJ000520919] is higher in “percent inhibition (TR-FRET)” value: -192.351 for the first, -146.21 for the second.

Going from `CCN1CCN(c2c(S(=O)(=O)c3ccc(C)cc3)cnc3ccc(OC)cc23)CC1` [SJ000083963] to `COc1ccc2ncc(S(=O)(=O)c3ccc(C)c(C)c3)c(N3CCN(C)CC3)c2c1` [SJ000247333], the “percent inhibition (TR-FRET)” value falls from -3.917 to -8.554.

First: CCOc1ccc2ncc(C(=O)c3ccc(C)cc3)c(N3CCN(CC)CC3)c2c1 [SJ000247284]
Second: CCN1CCN(c2c(C(=O)c3ccccc3)cnc3ccc(OC)cc23)CC1 [SJ000247365]
The “percent inhibition (TR-FRET)” value of the first is lower: -14.2514 for the first, -0.2733 for the second.

First: COc1ccccc1CN(CCCCNc1ccnc2cc(Cl)ccc12)Cc1ccccc1 [SJ000522726]
Second: Clc1ccc2c(NCCCCN(Cc3ccccc3)Cc3ccncc3)ccnc2c1 [SJ000361190]
The “percent inhibition (TR-FRET)” value of the first is higher: 19.4021 for the first, -9.945 for the second.

Compared with `CCOc1ccc2ncc(S(=O)(=O)c3ccc(C)cc3)c(N3CCN(c4ccccc4)CC3)c2c1` [SJ000117049], `CCOc1ccc2ncc(S(=O)(=O)c3ccccc3)c(N3CCN(c4ccccc4)CC3)c2c1` [SJ000083975] is higher in “percent inhibition (TR-FRET)” value: -45.3213 for the first, -12.0602 for the second.

Compared with `FC(F)(F)c1cccc(CN(CCCCNc2ccnc3cc(Cl)ccc23)Cc2ccccc2)c1` [SJ000520455], `FC(F)(F)c1cc(CN(CCCCNc2ccnc3cc(Cl)ccc23)Cc2ccccc2)ccc1Cl` [SJ000520466] is lower in “percent inhibition (TR-FRET)” value: 26.3784 for the first, 25.2787 for the second.

Compared with `CCCN(CCCNc1c2ccc(Cl)cc2nc2ccc(OC)cc12)Cc1nccs1` [SJ000522988], `CCCCN(CCC)CCCNc1c2ccc(Cl)cc2nc2ccc(OC)cc12` [SJ000522971] is lower in “percent inhibition (TR-FRET)” value: -117.531 for the first, -286.942 for the second.

First: O=S(=O)(c1ccccc1)c1cnc2ccc(Cl)cc2c1N1CCN(Cc2ccccc2)CC1 [SJ000247242]
Second: Cc1ccc2ncc(S(=O)(=O)c3ccccc3)c(N3CCN(Cc4ccccc4)CC3)c2c1 [SJ000247256]
The “percent inhibition (TR-FRET)” value of the first is lower: -30.2832 for the first, 2.673 for the second.

First: CN1CCN(c2c(S(=O)(=O)c3ccc(Cl)cc3)cnc3ccccc23)CC1 [SJ000247306]
Second: Cc1ccc(S(=O)(=O)c2cnc3ccccc3c2N2CCN(c3ccc(C)cc3C)CC2)cc1 [SJ000117080]
The “percent inhibition (TR-FRET)” value of the first is lower: -10.1441 for the first, 3.172 for the second.

First: COc1ccccc1N1CCN(c2c(S(=O)(=O)c3ccc(C)cc3)cnc3ccc(Cl)cc23)CC1 [SJ000117067]
Second: CCCN(CCCCNc1ccnc2cc(Cl)ccc12)Cc1c(F)cccc1OC [SJ000311203]
The “percent inhibition (TR-FRET)” value of the first is lower: -12.8602 for the first, 6.844 for the second.

Compared with `Clc1ccc2c(NCCNCC[C@H]3CC[C@]4(CC3)OO[C@]3(O4)C4CC5CC(C4)CC3C5)ccnc2c1` [SJ000578381], `Clc1ccc2c(NCCCCN(Cc3ccccc3)Cc3ccoc3)ccnc2c1` [SJ000312685] is lower in “percent inhibition (TR-FRET)” value: 18.3966 for the first, 14.8973 for the second.

Same assay, conditions: single point TR-FRET screening of quinoline compounds against MAGE-A11:PCF11; 15 µM

First: Fc1cccc(CN(CCCNc2ccnc3cc(Cl)ccc23)Cc2ccccc2)c1 [SJ000361176]
Second: Fc1ccc(CN(CCCNc2ccnc3cc(Cl)ccc23)Cc2ccccc2)cc1F [SJ000361174]
The “percent inhibition (TR-FRET)” value of the first is lower: 20.3571 for the first, 27.5505 for the second.

Compared with `CCCCCCNCCCNc1ccnc2cc(Cl)ccc12` [SJ000361120], `CCCCCNCCCNc1ccnc2cc(Cl)ccc12` [SJ000523057] is higher in “percent inhibition (TR-FRET)” value: 22.2507 for the first, 25.8183 for the second.

Going from `CCCN(CCCNc1ccnc2cc(Cl)ccc12)Cc1ccc(OC(F)(F)F)cc1` [SJ000522999] to `CCCN(CCCNc1ccnc2cc(Cl)ccc12)Cc1ccc(CC)cc1` [SJ000523001], the “percent inhibition (TR-FRET)” value rises from 22.7376 to 30.1342.

Compared with `CCCN(CCCNc1ccnc2cc(C(F)(F)F)ccc12)Cc1cc(C(F)(F)F)ccc1OC` [SJ000520486], `CCCN(CCCNc1ccnc2cc(C(F)(F)F)ccc12)Cc1c(F)cccc1C(F)(F)F` [SJ000520481] is higher in “percent inhibition (TR-FRET)” value: 8.188 for the first, 11.4651 for the second.

Compared with `Cn1ccnc1CN(CCCNc1ccnc2cc(Cl)ccc12)Cc1ccccc1` [SJ000520431], `CC(C)CN(CCCNc1ccnc2cc(Cl)ccc12)Cc1ccccc1` [SJ000357468] is higher in “percent inhibition (TR-FRET)” value: 15.361 for the first, 18.7467 for the second.

Compared with `c1ccc(-c2ccc3c(NCCCNCc4ccco4)ccnc3c2)cc1` [SJ000311282], `CC(C)(C)c1ccc(-c2ccc3c(NCCCNCc4ccco4)ccnc3c2)cc1` [SJ000311286] is higher in “percent inhibition (TR-FRET)” value: 28.689 for the first, 73.499 for the second.

First: CCCN(CCCNc1ccnc2cc(Cl)ccc12)Cc1cccn1C [SJ000523014]
Second: CCCN(CCCNc1ccnc2cc(Cl)ccc12)Cc1c(F)cccc1OC [SJ000357499]
The “percent inhibition (TR-FRET)” value of the first is higher: 22.7145 for the first, 19.4021 for the second.

First: FC(F)(F)c1ccc2c(NCCCNCc3ccc[nH]3)ccnc2c1 [SJ000361105]
Second: Clc1ccc2c(NCCCNCc3ccc[nH]3)ccnc2c1 [SJ000575192]
The “percent inhibition (TR-FRET)” value of the first is lower: 41.6887 for the first, 52.9917 for the second.

First: COc1ccc2nc3cc(Cl)ccc3c(NCCCNCc3ccccc3N)c2c1 [SJ000523031]
Second: COc1ccc2nc3cc(Cl)ccc3c(NCCCNCc3cccc(OC(F)(F)F)c3)c2c1 [SJ000520988]
The “percent inhibition (TR-FRET)” value of the first is higher: -57.1504 for the first, -73.5426 for the second.

Compared with `CCCN(CCCNc1ccnc2cc(Cl)ccc12)Cc1ccc(-c2cccc(Cl)c2)o1` [SJ000523045], `CCCN(CCCNc1ccnc2cc(Cl)ccc12)Cc1c(Cl)ccc(Cl)c1Cl` [SJ000523046] is higher in “percent inhibition (TR-FRET)” value: 16.2262 for the first, 17.7459 for the second.

Compared with `CCOC(=O)c1cnc2c(Cl)cc(Cl)cc2c1NCCCN1CCOCC1` [SJ000176476], `CCOC(=O)c1cnc2c(C)cc(Cl)cc2c1NCCCN1CCOCC1` [SJ000174094] is lower in “percent inhibition (TR-FRET)” value: -2.118 for the first, -10.5199 for the second.

Going from `CN(C)CCCNc1c2ccccc2nc2ccccc12` [SJ000044378] to `COc1ccc2nc3cc(Cl)ccc3c(NCCCNCc3c4ccccc4cc4ccccc34)c2c1` [SJ000361099], the “percent inhibition (TR-FRET)” value falls from 16.7674 to -3.728.

Going from `Clc1ccc2c(NCCCN(Cc3ccccc3)Cc3ccccc3)ccnc2c1` [SJ000361166] to `COc1ccc(CN(CCCNc2ccnc3cc(Cl)ccc23)Cc2ccccc2)cc1F` [SJ000520437], the “percent inhibition (TR-FRET)” value rises from 14.7648 to 23.6478.

First: COc1cccc(CN(CCCNc2ccnc3cc(Cl)ccc23)Cc2ccccc2)c1O [SJ000357465]
Second: Clc1ccc2c(NCCCNCc3cc4ccccc4o3)ccnc2c1 [SJ000521029]
The “percent inhibition (TR-FRET)” value of the first is lower: 13.1749 for the first, 17.9065 for the second.

First: Clc1ccc2c(NCCCNCC3CCOC3)ccnc2c1 (centres unmarked) [SJ000521038]
Second: Cc1ccsc1CNCCCNc1ccnc2cc(Cl)ccc12 [SJ000311189]
The “percent inhibition (TR-FRET)” value of the first is lower: 0.4026 for the first, 6.554 for the second.

Compared with `CCCN(CCCNc1ccnc2cc(Cl)ccc12)CC(CC)CC` [SJ000522752], `CCCCCCN(CCC)CCCNc1ccnc2cc(C(F)(F)F)ccc12` [SJ000523083] is higher in “percent inhibition (TR-FRET)” value: 14.1686 for the first, 34.9477 for the second.

Going from `CCC(CC)CNCCCNc1ccnc2cc(C(F)(F)F)ccc12` [SJ000361111] to `CCCCNCCCNc1ccnc2cc(C(F)(F)F)ccc12` [SJ000521055], the “percent inhibition (TR-FRET)” value falls from 24.3255 to 18.5367.

For `CCCN(CCCNc1c2ccc(Cl)cc2nc2ccc(OC)cc12)CCCSC` [SJ000522730], the “percent inhibition (TR-FRET)” value was 0.7867.
